Results taken from patent publication US20090318479A1, “SUBSTITUTED RING FUSED AZINES AND THEIR USE IN CANCER THERAPY” (Auckland Uniservices Limited, priority 2006, published 2009).
Like-named read-outs stand apart in the source and are kept apart here.

Legend:
[1] = tested on: Saos-2 osteosarcoma cells; conditions: cited from earlier work
[2] = background statement; cited from earlier work
[3] = tested on: A375.S2 melanoma (mutated at p53 position 249); conditions: A375.S2 melanoma cells in nude mice; cited from earlier work
[4] = tested on: DLD-1 colon carcinoma (mutated at p53 position 241); conditions: DLD-1 colon carcinoma cells in nude mice; cited from earlier work
[5] = tested on: NZOV11 human ovarian cell line; experiment: restoration of p53 function: G1-phase arrest after irradiation plus paclitaxel, flow cytometry; assay type: cell-based; conditions: 9 Gray plus 200 nM paclitaxel, 24 hours; for AC50: NZOV11, p53 mutated at position 248, G1 proportion restored to (a+b)/2, read-out: AC-50% (concentration of drug that restores the G1-phase proportion of the cultured cells); for Activity: NZOV11, p53 mutated at position 248 (arginine to glutamine)
From the text: Description of the in vitro assay: This protocol employs a novel assay that was used to measure the restoration of one of the principal p53 functions, that of regulating entry into S-phase (DNA replication) of the cell division cycle. Without being bound to any specific understanding, it is thought that these compounds may act to restore the known ability of p53 to induce cell cycle arrest in the G1-phase of the cell division cycle through induction of the p21^WAF1 protein in response to DNA damage (Levine. Cell 1997, 88, 323-31). Logarithmic phase cultures of tumour cell lines are irradiated in the presence of an inhibitor of cell division (to prevent the generation of G1-phase cells by cell division), and then allowed to grow for approximately one cell division time. If p53 function is present it will inhibit the progression of cells from the G1-phase to the S-phase of the cell division cycle, as a consequence of induction of the p21^WAF1 protein. If p53 function is absent there will be little or no cells in the G1-phase of the cell division cycle at the end of the incubation. […] The ability of an individual drug to restore p53 function is therefore evaluated against a positive control of non-irradiated cells and a negative control of cells that have been treated with a combination of radiation and a mitotic inhibitor.
Logarithmic phase cultures of tumour cell lines are plated in insulin-transferrin-selenite growth medium on 100 mm plates (10 ml) at a density of 10^4 cells/ml, using the standard cell culture conditions that are established in this laboratory (Marshall et al., Oncol Res 1994, 5, 301-9). The test compound is added to some cultures at a range of concentrations up to 20 μM. The anticancer drug paclitaxel is used as an inhibitor of cell division and is added to some cultures at a concentration of 200 nM. Cultures are irradiated where indicated at a dose of 9 Gray. Following irradiation, cultures are incubated at 37° C. for 24 hours, the cells harvested, washed once and fixed overnight in 100% methanol at −20° C. at a density of 5×10^5 cells/ml. Cells are rehydrated by washing in phosphate buffered saline with 2% foetal bovine serum, then incubated with RNAase A (0.25 mg/ml) at 37° C. for 30 min. Cells are then washed and resuspended in phosphate buffered saline containing 0.1 mM EDTA and 25 μg/ml propidium iodide. Cycle analysis (red fluorescence) is performed using a Becton Dickinson (Mountain View, Calif.) FACScan flow cytometer. Cellular DNA content profiles are analyzed using Modfit software (Verity Software House, Inc.) to provide estimates of the proportions of G1-, S- and G2/M-phase cells, and of other cellular material. By comparing the effects of irradiation and addition of paclitaxel separately, the assay provides evidence of non-specific inhibition of cell growth from changes in cell number, cell cycle distribution, and production of cellular debris.
Using cell cultures that have been both irradiated and treated with paclitaxel, the proportion of cells in G1-phase is plotted against the concentration of added test compound. Depending on the cell line, the proportion of G1-phase cells in the absence of added compound is generally less than 5% (defined as a). […] The 50%-activating concentration (AC-50%) of the test compound is defined as the concentration that restores the G1-phase proportion of the cultured cells to a value of (a+b)/2.
The NZOV11 human ovarian cell line, previously developed in this laboratory according to methods that have previously been published (Baguley B C et al., Eur J Cancer 1998, 34, 1086), was used in these studies to compare the activity of each of the drugs.

C57Bl mice = experiment: maximum tolerated intraperitoneal single dose and signs of toxicity in mice; assay type: in vivo
Description: (§1) Pharmacological studies in mice: A further consideration in this project is whether effective plasma concentrations can be achieved in vivo without significant side-effects. C57Bl mice were maintained under standard conditions in accordance with institutional ethical guidelines. The maximum tolerated intraperitoneal single dose of compound 3 was determined by administering different doses of drug to mice and found to be 100 mg/kg. […] An effective analytical procedure for the determination of concentrations of 3 in mouse plasma was developed, using high performance liquid chromatography and detection by ion trap mass spectrometry. The method is broadly applicable to compounds in the series. Blood samples were obtained under terminal anesthesia either before or at 1, 2 and 4 hours after a single intraperitoneal dose of 100 mg/kg. Plasma was prepared and analyzed using the method developed above.

[6] = tested on: other cell lines with mutations in other parts of the p53 protein; experiment: restoration of p53 function in other cell lines with other p53 mutations; assay type: cell-based; conditions: a number of other cell lines with mutations in other parts of the p53 protein
[7] = plasma concentrations after a single intraperitoneal dose; assay type: in vivo; conditions: C57Bl mice, single intraperitoneal 100 mg/kg, 1, 2 and 4 hours, FIG. 1
Description: Illustrates the in vivo plasma concentrations of compound 3 over time following a single intraperitoneal administration (100 mg/kg) to C57Bl mice.
as §1

[8] = tested on: NZM4 human tumour xenografts; experiment: growth of NZM4 human tumour xenografts in immunodeficient (rag 1) mice; assay type: in vivo
Description: Illustrates the growth curves for immunodeficient mice with NZM4 human tumour xenografts. Mice were either untreated (closed circles), treated with 2 Gray radiation alone (open circles) or treated with radiation combined with compound 3 (100 mg/kg per dose).
In vivo estimation of ability to restore p53 function: A further consideration in this project is to determine whether members of this series have the ability to inhibit the growth of human cell lines that contain mutant p53 protein. This consideration was addressed with the use of compound 3, for which in vitro evidence has been obtained for ability to restore p53 function (Table 2) and for which pharmacological evidence has been obtained for biologically relevant plasma concentrations in vivo in the absence of significant side-effects (FIG. 1). Immunodeficient (rag 1) mice were maintained under standard conditions in accordance with institutional ethical guidelines. Cells from the NZM4 cell line (Marshall E S et al., Eur J Cancer 1994; 30A: 1370-1376) were grown in culture and harvested. Mice were injected subcutaneously with 10^7 cells and tumours allowed to grow to a diameter of approximately 5 mm. Mice received whole-body irradiation of 2 Gray and were then administered compound 3 by intraperitoneal injection immediately after, and 1 and 2 days following, irradiation. […] Control animals received no treatment or were irradiated in the absence of drug administration.
Tumour growth was recorded three times weekly by measuring the minor and major dimensions of the tumour and tumour volumes were calculated as 0.52 times (minor dimension)^2 times (major dimension). Tumour volumes were normalized to the initial volume and plotted versus time. FIG. 2 illustrates the growth curves for immunodeficient mice with NZM4 human tumour xenografts. Mice were either untreated (closed circles), treated with 2 Gray radiation alone (open circles) or treated with radiation combined with compound 3 (100 mg/kg per dose). […]

| SMILES | AC50 ([5]; Homo sapiens) | Activity [5] | further results |
| --- | --- | --- | --- |
| COc1ccc(/C=C/c2nc(NCCCN(C)C)c3ccccc3n2)cc1 [(i)] | – | – | ability of mutant p53 protein to induce the cellular p21 gene ([1]; Saos-2 osteosarcoma cells): restored the ability of mutant p53 protein to induce the cellular p21 gene; potency ([1]; background statement, no test named): not very potent; chemical stability [2]: chemically unstable; suppression of tumour growth [3]: able to suppress the growth; suppression of tumour growth [4]: able to suppress the growth |
| CN(C)CCCNc1nc(-c2cc3ccccc3o2)nc2ccccc12.Cl.Cl [Compound 3, N^1-[2-(1-benzofuran-2-yl)-4-quinazolinyl]-N^3,N^3-dimethyl-1,3-propanediamine dihydrochloride] | 8.5 µM | Active | maximum tolerated intraperitoneal single dose (C57Bl mice; single intraperitoneal dose): 100 mg/kg; signs of toxicity (weight loss, ruffling of fur, behavioral changes) (C57Bl mice; single intraperitoneal dose of 100 mg/kg): No signs of toxicity; ability to restore p53 function [6]: able to restore p53 function; achieved plasma concentrations [7]: comparable to the AC-50% value; time to reach three times the initial tumour volume ([8]; 2 Gray radiation together with compound, 100 mg/kg per dose intraperitoneal on days 0, 1 and 2 after irradiation): 17 days; signs of toxicity ([8]; rag 1 mice, 2 Gray whole-body irradiation plus intraperitoneal compound immediately after and 1 and 2 days after): No signs of toxicity; tumour growth rate with drug alone compared with mice not treated with drug ([8]; rag1 mice, drug alone at the same schedule, no irradiation): identical rate |
| CN(C)CCCNc1nc(-c2cc3ccccc3o2)nc2ccc([N+](=O)[O-])cc12 [Compound 29, N^1-[2-(1-Benzofuran-2-yl)-6-nitro-4-quinazolinyl]-N^3,N^3-dimethyl-1,3-propanediamine] | 12 µM | Active | – |
| CN(C)CCCNc1nc(-c2cc3ccccc3o2)nc2ccc(N)cc12.Cl.Cl [Compound 30, N^1-[2-(1-Benzofuran-2-yl)-N^4-[3-(dimethylamino)propyl]-4,6-quinazolinediaminedihydrochloride] | – | – | AC50 [5]: 9.5 µM |
| CN(C)CCCNc1nc(-c2cc3ccccc3o2)nc2ccc(N)cc12.Cl.Cl [Compound 30] | – | Active | – |
| CN(C)CCCNc1nc(-c2cc3ccccc3o2)nc2cc(C(F)(F)F)ccc12.Cl.Cl [Compound 35, N^1-[2-(1-Benzofuran-2-yl)-7-(trifluoromethyl)-4-quinazolinyl]-N^3,N^3-dimethyl-1,3-propanediamine dihydrochloride] | 3.4 µM | Active | – |
| Cc1cccc2c(NCCCN(C)C)nc(-c3cc4ccccc4o3)nc12.Cl.Cl [Compound 45, N^1-[2-(1-Benzofuran-2-yl)-8-methyl-4-quinazolinyl]-N^3,N^3-dimethyl-1,3-propanediamine dihydrochloride] | 5.8 µM | Active | – |
| Cc1ccc2c(N(C)CCC(C)N)nc(-c3cc4ccccc4o3)nc2c1C.Cl.Cl (centres unmarked) [Compound 58, N^1-[2-(1-Benzofuran-2-yl)-7,8-dimethyl-4-quinazolinyl]-3,N-dimethyl-1,3-propanediamine dihydrochloride] | 2.7 µM | Active | – |
| Cc1c(-c2nc(NCCCN(C)C)c3ccccc3n2)oc2ccccc12.Cl.Cl [Compound 60, N^1,N^1-Dimethyl-N^3-[2-(3-methyl-1-benzofuran-2-yl)-4-quinazolinyl]-1,3-propanediamine dihydrochloride] | 18 µM | Active | – |
| CN(C)CCCNc1nc(-c2cc3ccccc3s2)nc2ccccc12.Cl.Cl [Compound 75, N^1-[2-(1-Benzothien-2-yl)-4-quinazolinyl]-N^3,N^3-dimethyl-1,3-propanediamine dihydrochloride] | 8 µM | Active | – |
| Cc1ccc2c(NCCC3CCCN3C)nc(-c3cc4ccccc4o3)nc2c1C.Cl.Cl (centres unmarked) [Compound 79, 2-(1-Benzofuran-2-yl)-7,8-dimethyl-N-[2-(1-methyl-2-pyrrolidinyl)ethyl]-4-quinazolinamine dihydrochloride] | 7.5 µM | Active | – |
| CN(C)CCCNc1cc(-c2cc3ccccc3o2)nc2ccccc12.Cl.Cl [Compound 80, N^1-[2-(1-benzofuran-2-yl)-4-quinolinyl]-N^3,N^3-dimethyl-1,3-propanediamine dihydrochloride] | 15 µM | Active | – |
